In patent US8202880B2, “3-hydroxy-6-phenylphenanthridines as PDE4 inhibitors” (NYCOMED GmbH, priority 2002, dated 2012) one finds melting point data, which are given here for two compounds.

As a reminder, the melting point is the temperature, or range, at which the solid turns liquid.

For `COc1cc2c(cc1OC)[C@H]1CC[C@H](O)C[C@H]1N=C2c1ccc(OCC2CC2)c(OCC2CC2)c1` (racemic) [Compound 4, (±)-(3SR,4aRS,10bRS)-6-(3,4-Bis-cyclopropylmethoxyphenyl)-8,9-dimethoxy-1,2,3,4,4a,10b-hexahydrophenanthridin-3-ol], the melting point was 172.5 to 174 °C.
To `COc1cc2c(cc1OC)C1CCC(O)CC1N=C2c1ccc(OCC2CC2)c(OCC2CC2)c1` (racemic) [Compound 3, (±)-(3RS,4aRS,10bRS)-6-(3,4-Bis-cyclopropylmethoxyphenyl)-8,9-dimethoxy(1,2,3,4,4a,10b)-hexahydrophenanthridin-3-ol] belongs 137 to 138 °C.
